Assay results: ChEMBL document CHEMBL4507261, “Data for DCP probe A-192621” (2021)

What was measured:
[1] = biological target: Interleukin-1 receptor-associated kinase 1 (Homo sapiens) (UniProt P51617); details: Compound concentration 1000.0 nM
[2] = biological target: Mitogen-activated protein kinase 10 (Homo sapiens) (UniProt P53779); details: Compound concentration 1000.0 nM
[3] = biological target: LIM domain kinase 2 (Homo sapiens) (UniProt P53671); details: Compound concentration 1000.0 nM
[4] = biological target: Mitogen-activated protein kinase 9 (Homo sapiens) (UniProt P45984); details: Compound concentration 1000.0 nM
[5] = biological target: Serine/threonine-protein kinase NIM1 (Homo sapiens) (UniProt Q8IY84); details: Compound concentration 1000.0 nM
[6] = biological target: Serine/threonine-protein kinase Nek11 (Homo sapiens) (UniProt Q8NG66); details: Compound concentration 1000.0 nM
[7] = biological target: Cyclin-dependent kinase 18 (Homo sapiens) (UniProt Q07002); details: Compound concentration 1000.0 nM
[8] = biological target: Serine/threonine-protein kinase SIK1 (Homo sapiens) (UniProt P57059); details: Compound concentration 1000.0 nM
[9] = biological target: Insulin receptor-related protein (Homo sapiens) (UniProt P14616); details: Compound concentration 1000.0 nM
[10] = biological target: Serine/threonine-protein kinase PRP4 homolog (Homo sapiens) (UniProt Q13523); details: Compound concentration 1000.0 nM
[11] = biological target: Mitogen-activated protein kinase 11 (Homo sapiens) (UniProt Q15759); details: Compound concentration 1000.0 nM
[12] = biological target: Dual specificity tyrosine-phosphorylation-regulated kinase 1A (Homo sapiens) (UniProt Q13627); details: Compound concentration 1000.0 nM
[13] = biological target: Casein kinase I isoform alpha-like (Homo sapiens) (UniProt Q8N752); details: Compound concentration 1000.0 nM
[14] = biological target: Dual specificity protein kinase TTK (Homo sapiens) (UniProt P33981); details: Compound concentration 1000.0 nM
[15] = biological target: Homeodomain-interacting protein kinase 3 (Homo sapiens) (UniProt Q9H422); details: Compound concentration 1000.0 nM
[16] = biological target: Phosphatidylinositol 3-kinase catalytic subunit type 3 (Homo sapiens) (UniProt Q8NEB9); details: Compound concentration 1000.0 nM
[17] = biological target: Serine/threonine-protein kinase SIK2 (Homo sapiens) (UniProt Q9H0K1); details: Compound concentration 1000.0 nM
[18] = biological target: Phosphatidylinositol 5-phosphate 4-kinase type-2 gamma (Homo sapiens) (UniProt Q8TBX8); details: Compound concentration 1000.0 nM
[19] = biological target: B2 bradykinin receptor (Homo sapiens) (UniProt P30411); experiment: B2 (h) Eurofins-Cerep binding assay; set-up: ligand concentration 0.3 nM; details: filed as agonist, Compound concentration 10.0 uM
[20] = biological target: Tyrosine-protein kinase ABL2 (Homo sapiens) (UniProt P42684); details: Compound concentration 1000.0 nM
[21] = biological target: Serine/threonine-protein kinase Nek6 (Homo sapiens) (UniProt Q9HC98); details: Compound concentration 1000.0 nM
[22] = biological target: Tyrosine-protein kinase receptor UFO (Homo sapiens) (UniProt P30530); details: Compound concentration 1000.0 nM
[23] = biological target: Serine/threonine-protein kinase DCLK3 (Homo sapiens) (UniProt Q9C098); details: Compound concentration 1000.0 nM
[24] = biological target: Substance-K receptor (Homo sapiens) (UniProt P21452); experiment: NK2 (h) Eurofins-Cerep binding assay; set-up: ligand concentration 0.1 nM; details: filed as agonist, Compound concentration 10.0 uM
[25] = biological target: Rhodopsin kinase GRK7 (Homo sapiens) (UniProt Q8WTQ7); details: Compound concentration 1000.0 nM
[26] = system: Epidermal growth factor receptor (Homo sapiens), P00533 [G719C]; details: Compound concentration 1000.0 nM
[27] = biological target: Serine/threonine-protein kinase Nek5 (Homo sapiens) (UniProt Q6P3R8); details: Compound concentration 1000.0 nM
[28] = biological target: voltage-gated L-type Ca2+ channel (dihydropyridine site) (Rattus norvegicus, UniProt P22002+P27732+Q02485); experiment: Ca2+ channel (L, dihydropyridine site) Eurofins-Cerep binding assay; set-up: incubation time 90 min, incubation temperature RT, ligand concentration 0.1 nM; details: rat cerebral cortex (source of protein), probe [3H]nitrendipine (0.1 nM), compound concentration 10 uM, read-out: % Inhibition of Control Specific Binding (Mean n=2)
[29] = biological target: Endothelin receptor type B (Homo sapiens) (UniProt P24530); experiment: ETB (h) Eurofins-Cerep binding assay; details: filed as agonist, Compound concentration 10.0 uM
[30] = biological target: Adenosine receptor A1 (Homo sapiens) (UniProt P30542); experiment: A1 (h) Eurofins-Cerep binding assay; set-up: ligand concentration 1 nM; details: filed as antagonist, Compound concentration 10.0 uM
[31] = biological target: Ribosomal protein S6 kinase alpha-6 (Homo sapiens) (UniProt Q9UK32); details: Compound concentration 1000.0 nM
[32] = biological target: NUAK family SNF1-like kinase 1 (Homo sapiens) (UniProt O60285); details: Compound concentration 1000.0 nM
[33] = biological target: Mitotic checkpoint serine/threonine-protein kinase BUB1 (Homo sapiens) (UniProt O43683); details: Compound concentration 1000.0 nM
[34] = biological target: Phosphorylase b kinase gamma catalytic chain, skeletal muscle/heart isoform (Homo sapiens) (UniProt Q16816); details: Compound concentration 1000.0 nM
[35] = biological target: GABA-A receptor; anion channel (Rattus norvegicus) (UniProt O09028+P15431+P18506+P18508+P19969+P20236+P23574+P23576+P28471+P28473+P30191+P62813+P63079+P63138+Q91ZM7+Q9ES14); experiment: BZD (central) Eurofins-Cerep binding assay; assay type: protein-complex assay; set-up: ligand concentration 0.4 nM; details: filed as agonist, Compound concentration 10.0 uM
[36] = biological target: Serine/threonine-protein kinase OSR1 (Homo sapiens) (UniProt O95747); details: Compound concentration 1000.0 nM
[37] = biological target: Protein kinase C theta type (Homo sapiens) (UniProt Q04759); details: Compound concentration 1000.0 nM
[38] = system: Mast/stem cell growth factor receptor Kit (Homo sapiens), P10721 [D816V]; details: Compound concentration 1000.0 nM
[39] = biological target: Histamine H2 receptor (Homo sapiens) (UniProt P25021); experiment: H2 (h) Eurofins-Cerep binding assay; set-up: ligand concentration 0.075 nM; details: filed as antagonist, Compound concentration 10.0 uM
[40] = biological target: Cyclin-dependent kinase 8 (Homo sapiens) (UniProt P49336); details: Compound concentration 1000.0 nM
[41] = biological target: Cyclin-dependent kinase-like 3 (Homo sapiens) (UniProt Q8IVW4); details: Compound concentration 1000.0 nM
[42] = biological target: Melatonin receptor type 1B (Homo sapiens) (UniProt P49286); experiment: MT2 (ML1B) (h) Eurofins-Cerep binding assay; set-up: ligand concentration 0.05 nM; details: filed as agonist, Compound concentration 10.0 uM
[43] = biological target: Cyclin-dependent kinase 16 (Homo sapiens) (UniProt Q00536); details: Compound concentration 1000.0 nM
Sequence of Cyclin-dependent kinase 16 (Homo sapiens) (Q00536 whole entry): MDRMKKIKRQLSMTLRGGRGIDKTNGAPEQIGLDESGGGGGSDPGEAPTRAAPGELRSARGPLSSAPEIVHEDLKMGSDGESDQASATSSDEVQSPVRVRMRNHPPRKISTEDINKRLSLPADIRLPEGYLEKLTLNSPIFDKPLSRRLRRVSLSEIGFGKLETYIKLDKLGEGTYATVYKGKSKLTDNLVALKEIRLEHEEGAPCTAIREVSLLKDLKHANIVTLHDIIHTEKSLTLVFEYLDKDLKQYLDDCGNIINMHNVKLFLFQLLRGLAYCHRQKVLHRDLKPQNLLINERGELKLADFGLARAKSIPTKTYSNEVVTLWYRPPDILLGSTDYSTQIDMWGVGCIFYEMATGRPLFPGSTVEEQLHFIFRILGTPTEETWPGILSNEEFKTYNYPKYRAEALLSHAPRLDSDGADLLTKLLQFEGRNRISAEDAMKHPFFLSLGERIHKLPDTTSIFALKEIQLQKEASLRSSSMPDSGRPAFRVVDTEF

Sequence of Phosphatidylinositol 3-kinase catalytic subunit type 3 (Homo sapiens) (Q8NEB9 whole entry): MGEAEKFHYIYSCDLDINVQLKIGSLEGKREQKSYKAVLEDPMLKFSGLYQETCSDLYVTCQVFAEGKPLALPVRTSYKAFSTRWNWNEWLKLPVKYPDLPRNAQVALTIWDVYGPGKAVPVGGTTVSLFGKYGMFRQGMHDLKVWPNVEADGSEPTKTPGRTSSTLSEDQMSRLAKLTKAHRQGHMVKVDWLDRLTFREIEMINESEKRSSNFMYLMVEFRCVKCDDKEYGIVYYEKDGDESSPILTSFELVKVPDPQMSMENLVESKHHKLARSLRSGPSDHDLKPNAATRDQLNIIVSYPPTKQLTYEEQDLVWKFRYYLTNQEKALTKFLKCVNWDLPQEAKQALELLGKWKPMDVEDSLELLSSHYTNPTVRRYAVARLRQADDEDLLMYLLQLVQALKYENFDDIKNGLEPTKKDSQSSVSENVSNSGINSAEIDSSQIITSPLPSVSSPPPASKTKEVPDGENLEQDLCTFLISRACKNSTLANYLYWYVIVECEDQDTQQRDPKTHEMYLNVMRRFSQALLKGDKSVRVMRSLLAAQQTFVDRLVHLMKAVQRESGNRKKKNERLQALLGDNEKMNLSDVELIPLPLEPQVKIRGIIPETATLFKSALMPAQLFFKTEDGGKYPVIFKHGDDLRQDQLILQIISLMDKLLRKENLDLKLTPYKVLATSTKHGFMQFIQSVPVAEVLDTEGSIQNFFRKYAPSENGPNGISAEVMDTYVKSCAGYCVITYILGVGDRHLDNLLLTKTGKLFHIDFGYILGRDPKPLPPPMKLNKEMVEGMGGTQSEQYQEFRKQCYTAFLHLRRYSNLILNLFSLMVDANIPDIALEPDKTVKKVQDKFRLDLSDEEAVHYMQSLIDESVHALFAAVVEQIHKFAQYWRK
Sequence of B2 bradykinin receptor (Homo sapiens) (P30411 whole entry): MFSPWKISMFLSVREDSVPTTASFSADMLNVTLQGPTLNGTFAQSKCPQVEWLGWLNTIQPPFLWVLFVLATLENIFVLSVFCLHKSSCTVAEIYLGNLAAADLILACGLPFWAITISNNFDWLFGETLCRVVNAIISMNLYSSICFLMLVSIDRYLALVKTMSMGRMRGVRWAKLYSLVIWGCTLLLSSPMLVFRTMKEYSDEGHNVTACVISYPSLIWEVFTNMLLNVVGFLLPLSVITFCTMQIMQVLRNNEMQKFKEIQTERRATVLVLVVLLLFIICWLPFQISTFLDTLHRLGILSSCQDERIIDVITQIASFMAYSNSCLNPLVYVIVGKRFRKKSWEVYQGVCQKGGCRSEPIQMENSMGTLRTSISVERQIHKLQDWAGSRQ
Sequence of Casein kinase I isoform alpha-like (Homo sapiens) (Q8N752 whole entry, canonical isoform): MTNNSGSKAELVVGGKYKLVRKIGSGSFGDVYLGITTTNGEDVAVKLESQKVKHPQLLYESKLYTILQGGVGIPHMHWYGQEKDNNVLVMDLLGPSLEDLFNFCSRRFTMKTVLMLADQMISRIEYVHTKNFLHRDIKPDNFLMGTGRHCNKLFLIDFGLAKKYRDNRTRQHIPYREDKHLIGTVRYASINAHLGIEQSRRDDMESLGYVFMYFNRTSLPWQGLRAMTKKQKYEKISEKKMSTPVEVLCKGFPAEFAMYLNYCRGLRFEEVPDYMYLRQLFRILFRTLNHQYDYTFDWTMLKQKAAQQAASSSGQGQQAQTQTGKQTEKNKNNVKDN
Sequence of Endothelin receptor type B (Homo sapiens) (P24530 whole entry): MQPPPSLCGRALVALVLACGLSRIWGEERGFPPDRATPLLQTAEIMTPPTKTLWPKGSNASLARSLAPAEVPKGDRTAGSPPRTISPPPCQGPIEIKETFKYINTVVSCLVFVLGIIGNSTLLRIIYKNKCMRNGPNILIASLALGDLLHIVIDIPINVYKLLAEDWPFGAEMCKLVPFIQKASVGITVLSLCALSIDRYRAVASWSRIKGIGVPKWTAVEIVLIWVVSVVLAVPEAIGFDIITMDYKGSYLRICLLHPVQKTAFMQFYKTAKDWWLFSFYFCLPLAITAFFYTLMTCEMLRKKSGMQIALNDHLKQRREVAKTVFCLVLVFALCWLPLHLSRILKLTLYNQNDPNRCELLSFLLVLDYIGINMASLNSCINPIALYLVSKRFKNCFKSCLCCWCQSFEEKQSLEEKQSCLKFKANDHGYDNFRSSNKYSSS
Sequence of Serine/threonine-protein kinase Nek5 (Homo sapiens) (Q6P3R8 whole entry): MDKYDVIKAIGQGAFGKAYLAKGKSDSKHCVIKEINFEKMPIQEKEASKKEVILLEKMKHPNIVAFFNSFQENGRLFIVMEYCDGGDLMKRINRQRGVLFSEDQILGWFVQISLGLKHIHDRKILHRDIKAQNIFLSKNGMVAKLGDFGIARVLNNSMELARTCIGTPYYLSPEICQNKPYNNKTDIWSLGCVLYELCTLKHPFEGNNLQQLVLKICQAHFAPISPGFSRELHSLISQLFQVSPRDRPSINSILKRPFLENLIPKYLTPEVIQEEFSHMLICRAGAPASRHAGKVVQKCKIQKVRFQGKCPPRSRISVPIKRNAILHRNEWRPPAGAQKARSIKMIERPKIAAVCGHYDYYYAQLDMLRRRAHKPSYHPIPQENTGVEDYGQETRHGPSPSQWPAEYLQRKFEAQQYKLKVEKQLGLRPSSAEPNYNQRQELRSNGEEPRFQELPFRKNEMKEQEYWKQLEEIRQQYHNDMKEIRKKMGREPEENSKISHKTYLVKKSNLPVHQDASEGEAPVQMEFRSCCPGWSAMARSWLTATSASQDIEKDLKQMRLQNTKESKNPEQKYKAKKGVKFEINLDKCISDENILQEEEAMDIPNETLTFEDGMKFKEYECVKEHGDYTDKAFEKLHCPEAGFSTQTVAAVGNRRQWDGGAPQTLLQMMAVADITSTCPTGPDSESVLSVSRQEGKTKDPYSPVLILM
Sequence of Serine/threonine-protein kinase SIK1 (Homo sapiens) (P57059 whole entry): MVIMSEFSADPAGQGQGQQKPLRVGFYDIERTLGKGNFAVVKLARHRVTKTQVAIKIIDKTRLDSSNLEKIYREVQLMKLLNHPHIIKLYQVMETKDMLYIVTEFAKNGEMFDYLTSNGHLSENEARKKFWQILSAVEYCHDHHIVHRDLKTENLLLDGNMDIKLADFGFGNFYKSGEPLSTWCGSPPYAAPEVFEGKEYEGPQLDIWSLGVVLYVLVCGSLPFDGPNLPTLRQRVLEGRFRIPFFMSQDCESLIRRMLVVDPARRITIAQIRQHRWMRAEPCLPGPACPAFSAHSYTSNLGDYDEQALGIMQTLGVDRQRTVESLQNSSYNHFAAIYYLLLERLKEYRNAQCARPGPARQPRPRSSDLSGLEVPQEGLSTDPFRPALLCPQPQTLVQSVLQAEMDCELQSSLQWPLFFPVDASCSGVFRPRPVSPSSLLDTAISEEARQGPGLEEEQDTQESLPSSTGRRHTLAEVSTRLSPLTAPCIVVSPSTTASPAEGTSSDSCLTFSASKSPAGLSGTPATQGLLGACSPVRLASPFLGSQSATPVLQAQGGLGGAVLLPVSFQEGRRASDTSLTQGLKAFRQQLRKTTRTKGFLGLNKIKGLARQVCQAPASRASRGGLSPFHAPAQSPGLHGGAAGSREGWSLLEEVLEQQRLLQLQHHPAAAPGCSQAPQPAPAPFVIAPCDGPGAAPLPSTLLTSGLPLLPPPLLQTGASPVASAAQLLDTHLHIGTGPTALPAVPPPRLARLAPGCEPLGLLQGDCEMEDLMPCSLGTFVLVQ
Sequence of Serine/threonine-protein kinase SIK2 (Homo sapiens) (Q9H0K1 whole entry, looked up): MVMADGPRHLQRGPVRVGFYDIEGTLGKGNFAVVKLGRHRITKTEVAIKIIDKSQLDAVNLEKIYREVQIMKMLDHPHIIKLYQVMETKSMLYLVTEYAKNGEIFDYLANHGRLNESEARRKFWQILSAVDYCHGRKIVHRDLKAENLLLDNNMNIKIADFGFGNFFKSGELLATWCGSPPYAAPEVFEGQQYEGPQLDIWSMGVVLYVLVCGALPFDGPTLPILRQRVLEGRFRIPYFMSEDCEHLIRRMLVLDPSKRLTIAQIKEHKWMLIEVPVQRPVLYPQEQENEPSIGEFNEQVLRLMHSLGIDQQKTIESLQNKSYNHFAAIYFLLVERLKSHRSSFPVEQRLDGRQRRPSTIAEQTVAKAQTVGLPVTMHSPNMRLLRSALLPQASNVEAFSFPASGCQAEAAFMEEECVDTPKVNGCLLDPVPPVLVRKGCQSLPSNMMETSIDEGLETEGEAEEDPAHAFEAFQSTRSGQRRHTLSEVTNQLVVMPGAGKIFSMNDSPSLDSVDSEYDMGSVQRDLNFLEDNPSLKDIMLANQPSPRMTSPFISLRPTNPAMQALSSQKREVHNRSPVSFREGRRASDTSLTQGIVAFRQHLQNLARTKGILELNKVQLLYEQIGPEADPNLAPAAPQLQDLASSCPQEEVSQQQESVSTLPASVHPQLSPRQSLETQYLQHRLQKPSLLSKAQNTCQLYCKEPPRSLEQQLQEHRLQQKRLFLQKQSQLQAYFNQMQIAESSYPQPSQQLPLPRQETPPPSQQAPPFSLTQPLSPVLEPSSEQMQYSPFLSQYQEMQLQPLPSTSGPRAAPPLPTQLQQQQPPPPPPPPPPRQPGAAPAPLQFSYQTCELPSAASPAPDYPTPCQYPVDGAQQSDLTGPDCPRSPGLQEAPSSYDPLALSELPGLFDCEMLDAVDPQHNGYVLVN

SMILES: CCCOc1ccc([C@H]2[C@H](C(=O)O)[C@@H](c3ccc4c(c3)OCO4)CN2CC(=O)Nc2c(CC)cccc2CC)cc1 [A-192621]
- residual activity [1]: 67%
- residual activity [2]: 80%
- residual activity [3]: 100%
- residual activity [4]: 65%
- residual activity [5]: 78%
- residual activity [6]: 59%
- residual activity [7]: 100%
- residual activity [8]: 100%
- residual activity [9]: 94%
- residual activity [10]: 82%
- residual activity [11]: 95%
- residual activity [12]: 73%
- residual activity [13]: 92%
- residual activity [14]: 94%
- residual activity [15]: 74%
- residual activity [16]: 78%
- residual activity [17]: 89%
- residual activity [18]: 49%
- % Inhibition of Control Specific Binding (Mean n=2) [19]: -8.6%
- residual activity [20]: 100%
- residual activity [21]: 96%
- residual activity [22]: 83%
- residual activity [23]: 100%
- % Inhibition of Control Specific Binding (Mean n=2) [24]: 18.3%
- residual activity [25]: 100%
- residual activity [26]: 95%
- residual activity [27]: 29%
- inhibition at 90 min, 10 µM [28]: 30.3%
- % Inhibition of Control Specific Binding (Mean n=2) [29]: 94.7%
- % Inhibition of Control Specific Binding (Mean n=2) [30]: 8.3%
- residual activity [31]: 77%
- residual activity [32]: 83%
- residual activity [33]: 98%
- residual activity [34]: 99%
- % Inhibition of Control Specific Binding (Mean n=2) [35]: -35.5%
- residual activity [36]: 75%
- residual activity [37]: 81%
- residual activity [38]: 92%
- % Inhibition of Control Specific Binding (Mean n=2) [39]: -35.3%
- residual activity [40]: 76%
- residual activity [41]: 92%
- % Inhibition of Control Specific Binding (Mean n=2) [42]: 2.4%
- residual activity [43]: 77%

SMILES: CCCOc1ccc([C@@H]2[C@@H](C(=O)O)[C@H](c3ccc4c(c3)OCO4)CN2CC(=O)Nc2c(CC)cccc2CC)cc1 [A-1806262]
- residual activity [1]: 96%
- residual activity [2]: 95%
- residual activity [3]: 64%
- residual activity [4]: 80%
- residual activity [5]: 81%
- residual activity [6]: 81%
- residual activity [7]: 100%
- residual activity [8]: 100%
- residual activity [9]: 100%
- residual activity [10]: 100%
- residual activity [11]: 98%
- residual activity [12]: 86%
- residual activity [13]: 94%
- residual activity [14]: 100%
- residual activity [15]: 85%
- residual activity [16]: 88%
- residual activity [17]: 96%
- residual activity [18]: 94%
- % Inhibition of Control Specific Binding (Mean n=2) [19]: -12.3%
- residual activity [20]: 96%
- residual activity [21]: 92%
- residual activity [22]: 93%
- residual activity [23]: 100%
- % Inhibition of Control Specific Binding (Mean n=2) [24]: -3%
- residual activity [25]: 99%
- residual activity [26]: 98%
- residual activity [27]: 55%
- inhibition at 90 min, 10 µM [28]: 27.2%
- % Inhibition of Control Specific Binding (Mean n=2) [29]: 96.7%
- % Inhibition of Control Specific Binding (Mean n=2) [30]: 4.2%
- residual activity [31]: 76%
- residual activity [32]: 99%
- residual activity [33]: 92%
- residual activity [34]: 97%
- % Inhibition of Control Specific Binding (Mean n=2) [35]: -12.9%
- residual activity [36]: 79%
- residual activity [37]: 100%
- residual activity [38]: 99%
- % Inhibition of Control Specific Binding (Mean n=2) [39]: -18.1%
- residual activity [40]: 86%
- residual activity [41]: 95%
- % Inhibition of Control Specific Binding (Mean n=2) [42]: -3.1%
- residual activity [43]: 89%
